Measurements published in US8912184B1, “Therapeutic and diagnostic methods” (Alzheimer's Institute of America, Inc., priority 2010, dated 2014).
Like-named read-outs stand apart in the source and are kept apart here.

System: cancer cell lines
Assay: Standard Cytotoxicity Assay for other cancer cell types (TC50, CellTiter-Glo)
Assay type: cell-based
Procedure: Approximately 24 hours later, test compound was added from serial dilutions prepared in DMSO from DMSO stock solutions.

Structure (SMILES): O=C(NCc1cccnc1)Nc1ccc(COc2ccccc2-c2ccccc2)cc1 [Exemplary Compound A, 1-{4-[(biphenyl-2-yloxy)methyl]phenyl}-3-(pyridin-3-ylmethyl)urea]
- CC50 (Homo sapiens, MIA PaCa-2, 168 h, MIA PaCa-2 (pancreatic), 7 DAY, read-out: TC50 (the source's name)): 0.4 nM
- CC50 (Homo sapiens, MIA PaCa-2, 168 h, MiaPaCa2 cells (pancreas), 7 day, read-out: Cmpd A 7 day TC50): 0.4 nM
- CC50 (Homo sapiens, MM1.S, 72 h, MM.1S cells (myeloma), 3 day, read-out: Cmpd A 3 day TC50): 1.2 nM
- CC50 (Homo sapiens, Malme-3M, 72 h, MALME-3M cells (melanoma (lung metastasis)), 3 day, read-out: Cmpd A 3 day TC50): 2.5 nM
- CC50 (Homo sapiens, NB-4, 72 h, NB-4 cells (myelogenous leukemia), 3 day, read-out: Cmpd A 3 day TC50): < 0.8 nM
- CC50 (Homo sapiens, NCI-H69, 72 h, NCI-H69 (SCLC), 3 DAY, read-out: TC50 (the source's name)): 1 nM
- CC50 (Homo sapiens, NCI-H69, 72 h, NCI-H69 cells (lung (small cell)), 3 day, read-out: Cmpd A 3 day TC50): 1 nM
- CC50 (Homo sapiens, NCI-H82, 72 h, NCI-H82 (SCLC), 3 DAY, read-out: TC50 (the source's name)): 1.1 nM
- CC50 (Homo sapiens, NCI-H226, 72 h, NCI-H226 cells (lung (NSCLC)), 3 day, read-out: Cmpd A 3 day TC50): 62 nM
- CC50 (Homo sapiens, NCI-H460, 72 h, NCI-H460 (NSCLC), 3 DAY, read-out: TC50 (the source's name)): 15.4 nM
- CC50 (Homo sapiens, NCI-H460, 72 h, NCI-H460 cells (lung (NSCLC)), 3 day, n = 9, read-out: Cmpd A 3 day TC50): 26 nM
- CC50 (Homo sapiens, NCI-H460, 168 h, NCI-H460 cells (lung (NSCLC)), 7 day, n = 8, read-out: Cmpd A 7 day TC50): 17 nM
- CC50 (Homo sapiens, NCI-H522, 72 h, NCI-H522 (NSCLC), 3 DAY, read-out: TC50 (the source's name)): 1 nM
- CC50 (Homo sapiens, NCI-H522, 168 h, NCI-H522 (NSCLC), 7 DAY, read-out: TC50 (the source's name)): 0.4 nM
- CC50 (Homo sapiens, NCI-H522, 168 h, NCI-H522 cells (lung (NSCLC)), 7 day, read-out: Cmpd A 7 day TC50): 0.4 nM
- CC50 (Homo sapiens, NCI-H929, 72 h, NCI-H929 (myeloma), 3 DAY, read-out: TC50 (the source's name)): 2.5 nM
- CC50 (Homo sapiens, NCI-H1299, 72 h, NCI-H1299 cells (lung (NSCLC)), 3 day, read-out: Cmpd A 3 day TC50): 4 nM
- CC50 (Homo sapiens, NCI-H1650, 72 h, NCI-H1650 (NSCLC), 3 DAY, read-out: TC50 (the source's name)): 2.5 nM
- CC50 (Homo sapiens, NCI-H1650, 72 h, NCI-H1650 cells (lung (NSCLC)), 3 day, read-out: Cmpd A 3 day TC50): 1.5 nM
- CC50 (Homo sapiens, NCI-N87, 72 h, NCI-N87 (gastric), 3 DAY, read-out: TC50 (the source's name)): 0.3 nM
- CC50 (Homo sapiens, NCI-N87, 72 h, NCI-N87 cells (gastric), 3 day, read-out: Cmpd A 3 day TC50): 0.3 nM
- CC50 (Homo sapiens, NCI-N87, 168 h, NCI-N87 (gastric), 7 DAY, read-out: TC50 (the source's name)): 0.2 nM
- CC50 (Homo sapiens, NCI-N87, 168 h, NCI-N87 cells (gastric), 7 day, read-out: Cmpd A 7 day TC50): 0.2 nM
- CC50 (Homo sapiens, NOMO-1, 72 h, NOMO-1 cells (myelogenous leukemia), 3 day, read-out: Cmpd A 3 day TC50): < 0.8 nM
- CC50 (Homo sapiens, OCI-LY19, 72 h, OCI-LY-19 cells (lymphoma), 3 day, read-out: Cmpd A 3 day TC50): 1.1 nM
- CC50 (Homo sapiens, OCI-LY19, 72 h, OCI-Ly19 (lymphoma), 3 DAY, read-out: TC50 (the source's name)): 1.2 nM
- CC50 (Homo sapiens, OPM-2, 72 h, OPM-2 (myeloma), 3 DAY, read-out: TC50 (the source's name)): 1.5 nM
- CC50 (Homo sapiens, OVCAR-3, 72 h, OVCAR3 (ovarian), 3 DAY, read-out: TC50 (the source's name)): 1.1 nM
- CC50 (Homo sapiens, OVCAR-3, 72 h, OVCAR-3 cells (ovary), 3 day, read-out: Cmpd A 3 day TC50): 1.1 nM
- CC50 (Homo sapiens, OVCAR-3, 168 h, OVCAR3 (ovarian), 7 DAY, read-out: TC50 (the source's name)): 0.4 nM
- CC50 (Homo sapiens, OVCAR-3, 168 h, OVCAR-3 cells (ovary), 7 day, read-out: Cmpd A 7 day TC50): 0.4 nM
- CC50 (Homo sapiens, OVCAR-4, 72 h, OVCAR-4 cells (ovary), 3 day, read-out: Cmpd A 3 day TC50): 2.8 nM
- CC50 (Homo sapiens, OVCAR-5, 72 h, OVCAR-5 cells (ovary), 3 day, read-out: Cmpd A 3 day TC50): 1.5 nM
- CC50 (Homo sapiens, OVCAR-8, 72 h, OVCAR-8 cells (ovary), 3 day, read-out: Cmpd A 3 day TC50): 0.5 nM
- CC50 (Homo sapiens, PC-3, 72 h, PC-3 cells (prostate), 3 day, read-out: Cmpd A 3 day TC50): < 1.5 nM
- CC50 (Homo sapiens, PFSK-1, 72 h, PFSK-1 cells (brain; malignant neuroectodermal tumor), 3 day, read-out: Cmpd A 3 day TC50): < 0.8 nM
- CC50 (Homo sapiens, RPMI-8226, 72 h, RPMI-8226 cells (myeloma), 3 day, read-out: Cmpd A 3 day TC50): 6 nM
- CC50 (Homo sapiens, Ramos, 72 h, Ramos cells (lymphoma), 3 day, read-out: Cmpd A 3 day TC50): 1.8 nM
- CC50 (Homo sapiens, SF-295, 72 h, SF-295 (glioma), 3 DAY, read-out: TC50 (the source's name)): 1.5 nM
- CC50 (Homo sapiens, SK-BR-3, 72 h, SK-BR-3 cells (breast), 3 day, read-out: Cmpd A 3 day TC50): 6.8 nM
- CC50 (Homo sapiens, SK-OV-3, 72 h, SK-OV-3 cells (ovary), 3 day, read-out: Cmpd A 3 day TC50): 1.2 nM
- CC50 (Homo sapiens, SKM-1, 72 h, SKM-1 cells (myelogenous leukemia), 3 day, read-out: Cmpd A 3 day TC50): < 0.8 nM
- CC50 (Homo sapiens, SR, 72 h, SR cells (lymphoma), 3 day, read-out: Cmpd A 3 day TC50): 21 nM
- CC50 (Homo sapiens, SU-DHL10, 72 h, SU-DHL-10 cells (lymphoma), 3 day, read-out: Cmpd A 3 day TC50): 0.75 nM
- CC50 (Homo sapiens, SU-DHL-1, 72 h, SU-DHL-1 cells (lymphoma), 3 day, read-out: Cmpd A 3 day TC50): 37 nM
- CC50 (Homo sapiens, SU-DHL-4, 72 h, SU-DHL-4 (lymphoma), 3 DAY, read-out: TC50 (the source's name)): 1.5 nM
- CC50 (Homo sapiens, SU-DHL-4, 72 h, SU-DHL-4 cells (lymphoma), 3 day, read-out: Cmpd A 3 day TC50): 0.84 nM
- CC50 (Homo sapiens, SU-DHL-5, 72 h, SU-DHL-5 (lymphoma), 3 DAY, read-out: TC50 (the source's name)): 0.9 nM
- CC50 (Homo sapiens, SU-DHL-5, 72 h, SU-DHL-5 cells (lymphoma), 3 day, read-out: Cmpd A 3 day TC50): 0.57 nM
- CC50 (Homo sapiens, SU-DHL-8, 72 h, SU-DHL-8 cells (lymphoma), 3 day, read-out: Cmpd A 3 day TC50): 0.59 nM
- CC50 (Homo sapiens, SU.86.86, 72 h, SU.86.86 cells (pancreas), 3 day, read-out: Cmpd A 3 day TC50): 4.3 nM
- CC50 (Homo sapiens, SW48, 72 h, SW-48 cells (colon), 3 day, read-out: Cmpd A 3 day TC50): 2.3 nM
- CC50 (Homo sapiens, SW480, 72 h, SW 480 cells (colon), 3 day, read-out: Cmpd A 3 day TC50): 4 nM
- CC50 (Homo sapiens, T47D, 72 h, T47D cells (breast), 3 day, read-out: Cmpd A 3 day TC50): 0.8 nM
- CC50 (Homo sapiens, T-24, 72 h, T24 cells (bladder), 3 day, read-out: Cmpd A 3 day TC50): 1 nM
- CC50 (Homo sapiens, THP-1, 72 h, THP-1 cells (lymphocytic leukemia), 3 day, read-out: Cmpd A 3 day TC50): < 0.8 nM
- CC50 (Homo sapiens, U2OS, 72 h, U-2 OS cells (osteosarcoma), 3 day, read-out: Cmpd A 3 day TC50): 2.2 nM
- CC50 (Homo sapiens, U-87 MG, 72 h, U-87MG (glioma), 3 DAY, read-out: TC50 (the source's name)): 23 nM
- CC50 (Homo sapiens, U-87 MG, 72 h, U-87 MG cells (brain; glioblastoma/astrocytoma), 3 day, read-out: Cmpd A 3 day TC50): 15 nM
- CC50 (Homo sapiens, U-266, 72 h, U266 cells (myeloma), 3 day, read-out: Cmpd A 3 day TC50): 18 nM
- CC50 (Homo sapiens, U-266, 168 h, U266 cells (myeloma), 7 day, read-out: Cmpd A 7 day TC50): 1.5 nM
- CC50 (Homo sapiens, U-937, 72 h, U-937 cells (lymphoma), 3 day, read-out: Cmpd A 3 day TC50): 1 nM
- CC50 (Homo sapiens, UACC-257, 72 h, UACC-257 cells (melanoma), 3 day, read-out: Cmpd A 3 day TC50): 27 nM
- CC50 (Homo sapiens, VCaP, 72 h, VCaP cells (prostate), 3 day, n = 2, read-out: Cmpd A 3 day TC50): > 10000 nM
- CC50 (Homo sapiens, VCaP, 168 h, VCaP cells (prostate), 7 day, read-out: Cmpd A 7 day TC50): 14 nM
- CC50 (Hs766T, 72 h, Hs 766T cells (pancreas), 3 day, read-out: Cmpd A 3 day TC50): 4.7 nM
- CC50 (L-82, 72 h, L-82 cells (lymphoma), 3 day, read-out: Cmpd A 3 day TC50): 32 nM
- CC50 (MLE12, 72 h, MLE-12 cells (mouse; lung), 3 day, read-out: Cmpd A 3 day TC50): 4 nM
- CC50 (MM.1R, 72 h, MM.1R cells (myeloma), 3 day, read-out: Cmpd A 3 day TC50): 1.5 nM
- CC50 (Mus musculus, B16-F10, 72 h, B16-F10 cells (mouse; melanoma), 3 day, read-out: Cmpd A 3 day TC50): 80 nM
- CC50 (Mus musculus, Hepa1-6, 72 h, Hepa1-6 cells (mouse; hepatoma), 3 day, read-out: Cmpd A 3 day TC50): 2.5 nM
- CC50 (Mus musculus, RAW264.7, 72 h, RAW264.7 cells (mouse; leukemia), 3 day, read-out: Cmpd A 3 day TC50): 14 nM
- CC50 (OVCAR-3 cells (ovary), 3 day, read-out: Cmpd A 3 day TC50): < 0.8 nM
- CC50 (OVCAR-8 cells (ovary), 3 day, read-out: Cmpd A 3 day TC50): < 0.8 nM
- CC50 (SR-786, 72 h, SR-786 cells (lymphoma), 3 day, read-out: Cmpd A 3 day TC50): 1.1 nM
- CC50 (SU-DHL-10 cells (lymphoma), 3 day, read-out: Cmpd A 3 day TC50): 0.83 nM
- CC50 (SUP-M2, 72 h, SUP-M2 cells (lymphoma), 3 day, read-out: Cmpd A 3 day TC50): 2.2 nM
- CC50 (T47D cells (breast), 3 day, read-out: Cmpd A 3 day TC50): < 1.5 nM
- CC50 (U266 cells (myeloma), 3 day, read-out: Cmpd A 3 day TC50): 10.3 nM
- CC50 (U-937 cells (lymphoma), 3 day, read-out: Cmpd A 3 day TC50): 0.89 nM
- CC50 (UWB1289, 72 h, UWB1.289 cells (ovary), 3 day, read-out: Cmpd A 3 day TC50): 2.4 nM
